Source: paper PMC9313812, “The Pseudo‐Natural Product Rhonin Targets RHOGDI” (Angewandte Chemie (International Ed. in English), 2022)
Entries after “also recorded” stand apart in the source; their conditions may differ. Where two headings read alike, the source gives them in different places.

Experiments:
[1] = target: T1, RHOGDI1-mediated extraction of RAC1 (Homo sapiens, UniProt P52565); assay: Liposome sedimentation assay: displacement of prenylated GDP-bound RAC1 from liposomes by GST-RHOGDI1; type: biochemical; conditions: 50 μM compound
T1 construct: made in house; host or cells: RHOGDI1: E. coli; prenylated RAC1: insect cells (TNAO38)
T1 sequence (P52565 1-204): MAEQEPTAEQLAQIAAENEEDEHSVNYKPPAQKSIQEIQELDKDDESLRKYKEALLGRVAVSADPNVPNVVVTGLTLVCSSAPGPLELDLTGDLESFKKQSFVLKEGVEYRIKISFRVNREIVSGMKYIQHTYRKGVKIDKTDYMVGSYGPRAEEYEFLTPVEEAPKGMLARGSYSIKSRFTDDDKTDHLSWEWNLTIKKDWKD
Experimental: Liposome sedimentation assay
Liposomes were prepared by self-assembly of the lipids (500 μg) containing 20% (w/w) phosphatidylethanolamine, 45% (w/w) phosphatidylcholine, 20% (w/w) phosphatidylserine, 10% (w/w) cholesterol, and 5% (w/w) phosphatidylinositol 4,5-bisphosphate. Liposome assays were performed by mixing, sonicating (20 s with minimal power, 50% off and 50% on) and extruding ([…] filter) the lipids in 300 µl of a buffer, containing 20 mM HEPES-NaOH pH 7.4, 50 mM NaCl, 3 mM DTT, 5 mM MgCl2. 1 µM GerGer-RAC1-GDP was added to the liposomes and incubated for 20 min on ice. 1.5 µM GST‐RHOGDI-1 and the compounds or DMSO were added to the liposome-GerGer-RAC1-GDP complex prior to incubation on ice for 30 min. The samples were centrifuged at 20,000 x g for 30 min at 4 °C. The resulting pellet and supernatant fractions were collected and analyzed by immunoblotting. 10 µl of each sample were loaded on a SDS-PAGE gel for Western blotting. Specific antibodies were used to visualize RAC1, CDC42 and RHOA.
10 µM of GerGer-RAC1-GDP was added to liposomes suspended in flotation assay buffer containing 20 mM HEPES-NaOH pH 7.4, 50 mM M NaCl, 3 mM DTT, 5 mM MgCl2, and incubated for 20 min on ice. The liposomes were prepared by using self-assembling the lipids (500 μg lipids in 300 µl buffer), containing 15% (w/w) phosphatidylethanolamine, 0.5% (w/w) NBD-PE (N-(7-nitrobenz-2-oxa-1,3-diazol-4-yl)-1,2-dihexadecanoyl-sn-glycero-3-phosphoethanolamine, triethylammonium salt), 45% (w/w) phosphatidylcholine, 20% (w/w) phosphatidylserine, 10% (w/w)cholesterol, and 5% (w/w) phosphatidylinositol 4,5-bisphosphate. 15 µM of GST‐RHOGDI-1 and compounds or DMSO was added to liposome-GerGer-RAC1-GDP complex and samples were further incubated on ice for 30 min. The samples were added to 30% (w/v) sucrose solution. […]
The resulting samples were centrifuged at 140000 x g for 1 h at 4 °C. The upper liposome‐ containing phase (detected by fluorescent NDB‐PE) was collected and analyzed by […]

C3H/10T1/2 cells = assay: Osteoblast differentiation assay (ODA): purmorphamine-induced osteogenesis, alkaline phosphatase luminescence readout; type: cell-based, mouse; set-up: key to Osteogenesis IC50: Compounds are marked inactive when no inhibition was observed at the highest test concentration of 30 µM; conditions: for Inhibition of Hh-/purmorphamine-induced osteogenesis (in words): C3H/10T1/2 cells; for IC50: Mus musculus, C3H 10T1/2
Experimental: Supplementary Table S7. Inhibition of osteogenesis assay. C3H10T1/2 cells were incubated with 1.5 µM purmorphamine and compounds or DMSO as a control for 96 h. The activity of alkaline phosphatase was assessed by means of a luminescence readout. Values for cells, which were treated with DMSO and purmorphamine, were set to 100% and data were measured in […]
concentration of 30 µM. All data are mean values of three independent experiments (n = 3) ± […]
Compound Osteogenesis IC50
(1 picture or pasted object on this page, not shown here)
NIH/3T3 cells were obtained from DSMZ, Germany (DSMZ ACC 59) and were cultured in DMEM (high glucose) supplemented with 10% heat-inactivated FCS, 2 mM L -glutamine and 1 mM sodium pyruvate. Shh -LIGHT2 cells (NIH/3T3 cells stably transfected with a Gli-responsive firefly luciferase reporter plasmid and a pRL-TK constituitive Renilla luciferase expression vector)[4] were cultured in the same culturing medium supplemented with 400 μg ml −1 G418 and 150 μg ml −1 Zeocin as selecting agents. The murine osteoblasts C3H/10T1/2 (ATCC CCL-226) were obtained from ATCC, USA and were cultured in DMEM (high glucose) supplemented with 10% heat-inactivated FCS, 6 mM L -glutamine, 1 mM sodium pyruvate. HEK293T cells (ATCC, England) were grown in DMEM containing 10% FBS, 100 U ml −1 penicillin and 0.1 mg ml −1 streptomycin. All cell lines were maintained at 37 °C and 5% CO 2 in a humidified atmosphere. All the cell lines were regularly assayed for mycoplasma and were confirmed to be mycoplasma-free. Transfection of DNA constructs and siRNAs were performed using FuGENE HD (Promega), Lipofectamine® LTX (Invitrogen) and DharmaFECT™ (GE Healthcare) transfection reagent according to the manufacturer’s […]
Osteoblast differentiation assay
The osteoblast differentiation assay was performed by the Compound Management and Screening Center (COMAS) in Dortmund, Germany. C3H/10T1/2 cells were seeded (800 per well) in white 384-well plates or (6000 per well) in 96-well plates. After incubation for 16 h, compounds or DMSO were added to the cells using the acoustic nanoliter dispenser ECHO 520 (Labcyte) and osteogenesis was induced with 1.5 µM purmorphamine. Plates were incubated for 96 h at 37 °C and 5% CO2. Alkaline phosphatase activity was measured by replacing the medium with osteogenesis-lysis buffer (lysis buffer: 100 mM Tris pH 9.5, 250 mM NaCl, 25 mM MgCl2, 1% Triton X-100, sterile filtered) containing 1:100 chemiluminescent substrate CDP-Star® (Promega, 384-well plates: 35 µL, 96-well plates: 50 µL) for one hour in the dark at 25 °C. In 384-well plates, the luminescence was monitored using the Paradigm plate reader (Molecular Devices, USA), whereas Spark plate reader (Tecan, Austria) was used to measure luminescence in 96-well plates. Dose-response analyses were performed for all hit compounds […]
using a three-fold dilution series starting from a concentration of 30 μM. Half-maximal inhibitory concentrations (IC50) were calculated using the Quattro software suite (Quattro Research, Planegg, Germany) or GraphPad Prism 7 (GraphPad, USA).
The effect of test compounds on the viability of C3H/10T1/2 cells was determined by CellTiter-Glo Luminescence cell viability assay (Promega). Cells were treated as described for the osteogenesis assay prior to addition of the CellTiter-Glo® reagent according to manufacturer’s protocol. Compounds causing at least a 50% reduction in the osteogenesis assay and retaining cell viability of at least 80% were considered as hits. Dose-response analyses were performed for all hit compounds using a three-fold dilution series starting from a concentration of 30 μM. Half-maximal inhibitory concentrations (IC50) were calculated using the Quattro software suite (Quattro Research GmbH). […]

[2] = Table S9, purmorphamine-induced, mean, n=3 ± SD, read-out: ODA IC50 ± SD

| Inhibition of RHOGDI1-mediated extraction of RAC1 from liposomes (in words) [1] | Osteogenesis IC50 (C3H/10T1/2 cells; Table S7, 1.5 µM purmorphamine, 96 h, mean ± SD, n=3, highest test concentration 30 µM) | IC50 (C3H/10T1/2 cells; Table S7, 1.5 µM purmorphamine, 96 h, mean ± SD, n=3, highest test concentration 30 µM, read-out: Osteogenesis IC50) [µM] | SMILES | Inhibition of Hh-/purmorphamine-induced osteogenesis (in words) (C3H/10T1/2 cells) | IC50 (C3H/10T1/2 cells; [2]) [µM] |
| --- | --- | --- | --- | --- | --- |
| did not inhibit extraction of RAC1 | inactive | – | COC(=O)C1(CCC(=O)c2ccc(F)cc2)N=C(c2ccc(Br)cc2)C2C(=O)N(C)C(=O)C21 (stereo not drawn) [7d] | abolished activity; also recorded: did not inhibit osteogenesis | – |
| inhibits the extraction of RAC1 | – | 1.5 ± 0.2 | COC(=O)C1(C(CC(=O)c2ccccc2)c2ccccc2)N=C(c2ccc(Br)cc2)C2C(=O)N(C)C(=O)C21 (stereo not drawn) [7a] | – | 1.3 ± 0.3 |

| SMILES | Inhibition of RHOGDI1-mediated extraction of RAC1 from liposomes (in words) [1] | Osteogenesis IC50 (C3H/10T1/2 cells; Table S7, 1.5 µM purmorphamine, 96 h, mean ± SD, n=3, highest test concentration 30 µM) | IC50 (C3H/10T1/2 cells; Table S7, 1.5 µM purmorphamine, 96 h, mean ± SD, n=3, highest test concentration 30 µM, read-out: Osteogenesis IC50) [µM] | Inhibition of Hh-/purmorphamine-induced osteogenesis (in words) (C3H/10T1/2 cells) | IC50 (C3H/10T1/2 cells; [2]) [µM] |
| --- | --- | --- | --- | --- | --- |
| COC(=O)C1(C(CC(=O)c2cccnc2)c2ccccc2)N=C(c2ccc(Br)cc2)C2C(=O)N(C)C(=O)C21 (stereo not drawn) [7l] | inhibited | – | – | most potently inhibited | 1.52 ± 0.22 |
